Calls of active or inactive are those of the source.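 The calls were made as follows: active = at least one hamster carcinogenic potency value with a tumor site listed for any sex group; inactive = no potency or tumor site yet a negative hamster study.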
Tested on: hamster chronic carcinogenicity bioassay, TD50
Assay: DSSTox (CPDBAS) Carcinogenic Potency Database Summary Hamster Bioassay Results
Source text: The Carcinogenic Potency Database (CPDB) is a unique and widely used international resource of the results of over 6500 chronic, long-term animal cancer tests on over 1500 chemical substances. The CPDB provides easy access to the bioassay literature, with qualitative and quantitative analyses of both positive and negative experiments that have been published over the past 50 years in the general literature and by the National Cancer Institute/National Toxicology Program. The CPDB standardizes the diverse literature of cancer bioassays that vary widely in protocol, histopathological examination and nomenclature, and in the published author's choices of what information to provide in their papers. Results are reported in the CPDB for tests in rats, mice, hamsters, dogs, and nonhuman primates, and are based on the most positive result among all experiments for each sex-species. The DSSTox CPDBAS (all species) file incorporates data from the CPDB Summary Tables for the full list of over 1500 chemical substances tested in at least one species. Summary bioassay results for Hamster (TD50, tumor sites, male, female, both sexes) are provided in the CPDB Summary Tables and the DSSTox CPDBAS file for over 80 chemical substances.
TD50 is a standardized quantitative measure of carcinogenic potency (analogous to an LD50) and is reported in the CPDB Summary Table for each species. Activity Score for actives is computed by mapping of LOG10 (1/TD50_Hamster_mmol) activity values spanning range [MIN, MAX] onto Integer 1-100 Activity Score range, where 100 is highest potency and 1 is lowest: Activity Score = 100 * INTEGER[(log10(1/Activity) - MIN)/(MAX - MIN)]. If activity is reported but no TD50_Hamster_mmol value is computed, such as for a mixture, the Activity Score is assigned the activity value "50". […] Target sites are reported for each sex-species group with a positive result in the CPDB on the basis of a positive author's opinion for the particular site, using all results from both the general literature and NCI/NTP bioassays. If a chemical has two or more target sites listed, the results may be from different experiments, and a single site may be a target organ in more than one experiment, as well. Blank entry in TargetSites field indicates no results reported.

Compound	outcome	Potency
C=O	inactive; no positive results	
ClC(Cl)=C(c1ccc(Cl)cc1)c1ccc(Cl)cc1		202 mg/kg/day
CC1CN(N=O)CC(C)N1C (stereo not given)		1.32 mg/kg/day
COc1ccc(O)c(C(C)(C)C)c1	inactive; no positive results	
N=C1C=CC(=C(c2ccc(N)cc2)c2ccc(N)cc2)C=C1	inactive; no positive results	
CN(C)CCN(Cc1cccs1)c1ccccn1	inactive; no positive results	
O=NO	inactive; no positive results	
O=NN1CCCC1c1ccc[n+]([O-])c1 (stereo not given)	inactive; no positive results	
CN(N)C=O		5.8 mg/kg/day
CN(C)N		124 mg/kg/day
S=C=NCCc1ccccc1	inactive	
C=C(C)C(=O)OC	inactive; no positive results	
O=S(=O)([O-])[O-].[Cd+2]	inactive; no positive results	
CCN(N=O)C(=O)NCCO		1.04 mg/kg/day
O=NN1CCOCC1		3.57 mg/kg/day
CC1=CC(=C(c2ccc(N)cc2)c2ccc(N)cc2)C=CC1=N	inactive; no positive results	
CC(O)CN(CC(O)CO)N=O (stereo not given)		1.59 mg/kg/day
CCOC(=O)N(C)N=O		0.127 mg/kg/day
OCC1CO1 (stereo not given)		56.1 mg/kg/day
Cc1cccc(Nc2cc(Cl)nc(SCC(=O)O)n2)c1C	inactive; no positive results	
CC(=O)CN(N=O)C(N)=O		0.13 mg/kg/day
NC(=O)/C(=C\c1ccc([N+](=O)[O-])o1)c1ccco1		164 mg/kg/day

Compound	outcome	Potency
COC1=CC(=O)C[C@@H](C)[C@]12Oc1c(Cl)c(OC)cc(OC)c1C2=O	inactive; no positive results	
C=CCN(CC(C)=O)N=O		1.19 mg/kg/day
O=Cc1ccco1	inactive; no positive results	
CCC1(c2ccccc2)C(=O)NC(=O)NC1=O	inactive; no positive results	
Clc1c(Cl)c(Cl)c(Cl)c(Cl)c1Cl		4.96 mg/kg/day
NNC(=O)c1ccncc1	inactive; no positive results	
O=NN1CCCCC1		83.3 mg/kg/day
c1ccc(Nc2ccc3ccccc3c2)cc1	inactive; no positive results	
Clc1ccc(C(c2ccc(Cl)cc2)C(Cl)(Cl)Cl)cc1	inactive; no positive results	
O=NN1CCCC1		14.2 mg/kg/day
CCO	inactive; no positive results	
O=C(C1CCCCC1)N1CC(=O)N2CCc3ccccc3C2C1 (stereo not given)	inactive; no positive results	
[O-][Br+2]([O-])O		533 mg/kg/day
F[B-](F)(F)F	inactive; no positive results	
CNN		11.5 mg/kg/day
CN(C)C(=O)Cl		0.625 mg/kg/day
O=NN1CCC1		7.14 mg/kg/day
O=NN1CCOC1		0.798 mg/kg/day
CCN(N=O)C(=O)NCC(C)=O		0.443 mg/kg/day
CN(Cc1cnc2nc(N)nc(N)c2n1)c1ccc(C(=O)N[C@@H](CCC(=O)O)C(=O)O)cc1	inactive; no positive results	
NN		4.16 mg/kg/day
NNCCO	inactive; no positive results	

Compound	outcome	Potency
O=C(O)c1ccc(O)c(O)c1	inactive	
Nc1ncn[nH]1	inactive; no positive results	
CN(C)CCN(C)N=O		3.83 mg/kg/day
CN(CCCC(=O)c1cccnc1)N=O	inactive	
CC(C)OC(=O)Nc1cccc(Cl)c1	inactive; no positive results	
CC1CN(N=O)C(=O)O1 (stereo not given)		0.172 mg/kg/day
C=CCN(CC=C)N=O		1.54 mg/kg/day
CC(=O)N(O)c1ccc2c(c1)Cc1ccccc1-2		2.1 mg/kg/day
CC(C)(OCc1ccc(-c2ccc(Cl)cc2)cc1)C(=O)O	inactive; no positive results	
CC(=O)CN(CC(O)CO)N=O (stereo not given)		0.754 mg/kg/day
[Cd+2].[Cl-].[Cl-]	inactive; no positive results	
CC(C)(Oc1ccc(C2CCCc3ccccc32)cc1)C(=O)O (stereo not given)	inactive; no positive results	
CC=O		565 mg/kg/day
O=CNNc1nc(-c2ccc([N+](=O)[O-])o2)cs1		16.6 mg/kg/day
CC(=O)CN(CCO)N=O		0.997 mg/kg/day
COCCl		16.4 mg/kg/day
C[C@@H]1O[C@@H](OC[C@H]2O[C@@H](Oc3c(-c4ccc(O)c(O)c4)oc4cc(O)cc(O)c4c3=O)[C@H](O)[C@@H](O)[C@@H]2O)[C@H](O)[C@H](O)[C@H]1O	inactive; no positive results	
CC(=O)CN(N=O)C(=O)NCCCl		0.338 mg/kg/day
CC(C)OC(=O)Nc1ccccc1	inactive; no positive results	
O=CNc1nc(-c2ccc([N+](=O)[O-])o2)cs1		9.77 mg/kg/day
ClC1=C(Cl)[C@]2(Cl)[C@@H]3[C@@H]4C[C@@H]([C@H]5O[C@@H]45)[C@@H]3[C@@]1(Cl)C2(Cl)Cl	inactive; no positive results	
Cc1cc(=O)[nH]c(=S)[nH]1		53.4 mg/kg/day

Compound	outcome	Potency
CNNC		0.179 mg/kg/day
N#[N+]c1ccccc1	inactive; no positive results	
O=NN(CCO)CC(O)CO (stereo not given)	inactive	
CN(CC(O)CO)N=O (stereo not given)		0.94 mg/kg/day
O=[N+]([O-])c1ccc2c3c(cccc13)CC2	inactive	
NC(=O)N(CCc1ccccc1)N=O		0.964 mg/kg/day
O=c1ccc2ccccc2o1	inactive; no positive results	
CCOC(N)=O		65.2 mg/kg/day
CC(=O)Nc1ccc2c(c1)Cc1ccccc1-2		17.4 mg/kg/day
C=CC(=C)Cl	inactive; no positive results	
CC1CN(N=O)CC(C)N1N=O (stereo not given)		3.1 mg/kg/day
C=CCl		39.4 mg/kg/day
CC1CN(N=O)CC(C)O1 (stereo not given)		2 mg/kg/day
O=S(=O)(O)O		118 mg/kg/day
O=c1c(O)c(-c2ccc(O)c(O)c2)oc2cc(O)cc(O)c12	inactive; no positive results	
O=C(O)c1ccncc1	inactive; no positive results	
O=NN1CCCC1c1cccnc1 (stereo not given)		10.8 mg/kg/day
ClC=C(Cl)Cl	inactive; no positive results	
CC(=O)Nc1nc(-c2ccc([N+](=O)[O-])o2)cs1		8.91 mg/kg/day

Reference: PubChem BioAssay AID1191 (EPA DSSTox, 2008)
